Laboratory results from publication PMC3327805 (Journal of Molecular Biology, 2012).

Target: PBPA (penicillin-binding protein A) (Mycobacterium tuberculosis, UniProt P9WKD1)
Sequence (P9WKD1 34-491): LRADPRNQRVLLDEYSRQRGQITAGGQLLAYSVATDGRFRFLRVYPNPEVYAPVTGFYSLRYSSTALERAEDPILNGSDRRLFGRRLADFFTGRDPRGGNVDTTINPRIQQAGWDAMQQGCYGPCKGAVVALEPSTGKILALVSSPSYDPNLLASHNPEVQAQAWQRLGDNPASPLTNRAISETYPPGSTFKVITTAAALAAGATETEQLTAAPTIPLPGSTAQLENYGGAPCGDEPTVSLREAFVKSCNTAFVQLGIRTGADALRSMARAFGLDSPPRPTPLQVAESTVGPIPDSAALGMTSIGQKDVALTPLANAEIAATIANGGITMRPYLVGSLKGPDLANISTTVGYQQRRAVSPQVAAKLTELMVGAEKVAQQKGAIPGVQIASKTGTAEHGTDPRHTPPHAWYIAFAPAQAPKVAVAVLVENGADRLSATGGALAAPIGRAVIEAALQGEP

C[C@@H](O)[C@H]1C(=O)N2C(C(=O)O)=C(SCCN=CN)C[C@H]12 [Imipenem]
Method / Intrinsic fluorescence: 3,980 ± 180 M^-1 sec^-1
